# Results reported in ChEMBL document CHEMBL1128112, “The Abu-pocket paradox of the cyclophilin a / cyclosporin a interaction” (1995).
# Species: Mus musculus
# Experiment: Compound was tested in vitro for its immunosuppressive potential using mouse mixed lymphocyte reaction (MLR_M) with relative to Cyclophilin A
# Assay type: functional
structure (smiles),measurement,value
C/C=C/C[C@@H](C)[C@@H](O)[C@H]1C(=O)N[C@@H](C(O)Cc2ccccc2)C(=O)N(C)CC(=O)N(C)[C@@H](CC(C)C)C(=O)N[C@@H](C(C)C)C(=O)N(C)[C@@H](CC(C)C)C(=O)N[C@@H](C)C(=O)N[C@H](C)C(=O)N(C)[C@@H](CC(C)C)C(=O)N(C)[C@@H](CC(C)C)C(=O)N(C)[C@@H](C(C)C)C(=O)N1C (stereo partly specified),rIC50,360
